According to patent publication US20220220152A1, “BIVALENT ANTAGONISTS OF INHIBITORS OF APOPTOSIS PROTEINS” (Hepagene Therapeutics (HK) Limited, priority 2019, published 2022):
pIC50: −log10 of the molar value.

What was measured:
cIAP2-BIR3 = target: T1, cIAP2-BIR3 (Homo sapiens, UniProt Q13489); experiment: cIAP2-BIR3 fluorescence polarization binding assay; conditions: FP, probe AbuRPFK-5FAM (SM5F) 5 nM, cIAP2-BIR3 80 nM, 60 min at 25° C.
T1 construct: cIAP2-BIR3; purchased Reaction Biology APT-11-372
T1 sequence (Q13489 238-349 limits assumed): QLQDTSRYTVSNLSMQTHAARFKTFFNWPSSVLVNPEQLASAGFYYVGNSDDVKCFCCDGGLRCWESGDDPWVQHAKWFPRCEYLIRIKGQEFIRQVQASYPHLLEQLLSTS
How it was run: (§1)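 Fluorescence polarization competition using 5-carboxyfluorescein-labelled peptide probe AbuRPFK-5FAM; protein and compound preincubated 15 min, probe added, then 60 min at 25° C.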

cIAP1-BIR3 = target: T2, cIAP1-BIR3 (Homo sapiens, UniProt Q13490); experiment: cIAP1-BIR3 fluorescence polarization binding assay; conditions: FP, probe AbuRPFK-5FAM (SM5F) 5 nM, cIAP1-BIR3 15 nM, 60 min at 25° C.
T2 construct: cIAP1-BIR3; purchased Reaction Biology APT-11-370
T2 sequence (Q13490 253-363 limits assumed): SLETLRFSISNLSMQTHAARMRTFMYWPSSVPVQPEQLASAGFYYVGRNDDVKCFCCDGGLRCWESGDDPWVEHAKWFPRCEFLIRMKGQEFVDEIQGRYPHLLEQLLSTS
How it was run: as §1

XIAP-BIR3 = target: T3, XIAP-BIR3 (Homo sapiens, UniProt P98170); experiment: XIAP-BIR3 fluorescence polarization binding assay; conditions: FP, probe AbuRPFK-5FAM (SM5F) 5 nM, XIAP-BIR3 40 nM, 60 min at 25° C.
T3 construct: XIAP-BIR3; purchased Reaction Biology APT-11-374
T3 sequence (P98170 241-356 limits assumed): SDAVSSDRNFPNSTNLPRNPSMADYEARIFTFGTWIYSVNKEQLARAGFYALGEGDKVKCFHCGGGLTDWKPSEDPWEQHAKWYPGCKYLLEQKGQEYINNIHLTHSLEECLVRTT
How it was run: as §1

Row | pIC50 (cIAP2-BIR3) | pIC50 (cIAP1-BIR3) | pIC50 (XIAP-BIR3) | SMILES
1 | 6.00 to 7.00 | 7.00 to 8.00 | < 6.00 | CN[C@@H](C)C(=O)N[C@H](C(=O)N1CCC[C@H]1C(=O)N[C@@H]1CCCc2ccc(N3CCN(c4ccc5c(c4)[C@H](NC(=O)[C@@H]4CCCN4C(=O)[C@@H](NC(=O)[C@H](C)NC)C4CCCCC4)CCC5)CC3)cc21)C1CCCCC1 [VIII-A, (2S)-1-[(2S)-2-cyclohexyl-2-[(2S)-2-(methylamino)propanamido]acetyl]-N-[(1R)-7-[4-[(8R)-8-[(2S)-1-[(2S)-2-cyclohexyl-2-[(2S)-2-(methylamino)propanamido]acetyl]pyrrolidine-2-amido]-5,6,7,8-tetrahydronaphthalen-2-yl]piperazin-1-yl]-1,2,3,4-tetrahydronaphthalen-1-yl]pyrrolidine-2-carboxamide]
2 | 7.00 to 8.00 | 8.00 to 9.00 | 7.00 to 8.00 | CN[C@@H](C)C(=O)N[C@H](C(=O)N1CCC[C@H]1C(=O)N[C@@H]1CCCc2c(Oc3cccc4c3CCC[C@H]4NC(=O)[C@@H]3CCCN3C(=O)[C@@H](NC(=O)[C@H](C)NC)C3CCCCC3)cccc21)C1CCCCC1 [Compound X, (2S)-1-[(2S)-2-cyclohexyl-2-[(2S)-2-(methylamino)propanamido]acetyl]-N-[(1R)-5-[[(5R)-5-[(2S)-1-[(2S)-2-cyclohexyl-2-[(2S)-2-(methylamino)propanamido]acetyl]pyrrolidine-2-amido]-5,6,7,8-tetrahydronaphthalen-1-yl]oxy]-1,2,3,4-tetrahydronaphthalen-1-yl]pyrrolidine-2-carboxamide]

Second part, the compound before the results:

Row | SMILES | pIC50 (cIAP2-BIR3) | pIC50 (cIAP1-BIR3) | pIC50 (XIAP-BIR3)
3 | CN[C@@H](C)C(=O)N[C@H](C(=O)N1C[C@@H](O)C[C@H]1C(=O)N[C@@H]1CCCc2c(OC/C=C/COc3cccc4c3CCC[C@H]4NC(=O)[C@@H]3C[C@H](O)CN3C(=O)[C@@H](NC(=O)[C@H](C)NC)C3CCCCC3)cccc21)C1CCCCC1 [Compound I-E, (2S,4S)-1-[(2S)-2-cyclohexyl-2-[(2S)-2-(methylamino)propanamido]acetyl]-N-[(1R)-5-[[(2E)-4-[[(5R)-5-[(2S,4S)-1-[(2S)-2-cyclohexyl-2-[(2S)-2-(methylamino)propanamido]acetyl]-4-hydroxypyrrolidine-2-amido]-5,6,7,8-tetrahydronaphthalen-1-yl]oxy]but-2-en-1-yl]oxy]-1,2,3,4-tetrahydronaphthalen-1-yl]-4-hydroxypyrrolidine-2-carboxamide] | 7.00 to 8.00 | 8.00 to 9.00 | 7.00 to 8.00
4 | CN[C@@H](C)C(=O)N[C@@H](C)C(=O)N1CCC[C@H]1C(=O)N[C@@H]1CCCc2c(OCCCCCOc3cccc4c3CCC[C@H]4NC(=O)[C@@H]3CCCN3C(=O)[C@H](C)NC(=O)[C@H](C)NC)cccc21 [Compound I-C, (2S)-1-[(2S)-2-[(2S)-2-(methylamino)propanamido]popanoyl]-N-[(1R)-5-[(5-[[(5R)-5-[(2S)-1-[(2S)-2-[(2S)-2-(methylamino)propanamido]propanoyl]pyrrolidine-2-amido]-5,6,7,8-tetrahydmnaphthalen-1-yl]oxy]pentyl)oxy]-1,2,3,4-tetrahydronaphthalen-1-yl]pyrrolidine-2-carboxamide] | 7.00 to 8.00 | 8.00 to 9.00 | 6.00 to 7.00
5 | CN[C@@H](C)C(=O)N[C@H](C(=O)N1CCC[C@H]1C(=O)N[C@@H]1CCCc2c(OCCOCCOc3cccc4c3CCC[C@H]4NC(=O)[C@@H]3CCCN3C(=O)[C@@H](NC(=O)[C@H](C)NC)C(C)C)cccc21)C(C)C [Compound II-A, (2S)-1-[(2S)-3-Methyl-2-[(2S)-2-(methylamino)propanamido]butanoyl]-N-[(1R)-5-[2-(2-{[(5R)-5-[(2S)-1-[(2S)-3-methyl-2-[(2S)-2-(methylamino)propanamido]butanoyl]pyrrolidine-2-amido]-5,6,7,8-tetrahydronaphthalen-1-yl]oxy}ethoxy)ethoxy]-1,2,3,4-tetrahydronaphthalen-1-yl]pyrrolidine-2-carboxamide] | 8.00 to 9.00 | 8.00 to 9.00 | 6.00 to 7.00
